Assay results: publication PMC6152192, “Novel Methylselenoesters as Antiproliferative Agents” (Molecules : A Journal of Synthetic Chemistry and Natural …, 2017)

Assays:
[1] = test system: MCF7 cells; test: Cell death analysis (TUNEL, Apo-Direct kit, flow cytometry); assay type: cell-based; settings: for dead cells: MCF7, 30 μM, TUNEL; for cell death time dependence: MCF7, time-course, 15 μM compound 5 or 30 μM compound 15, TUNEL
Protocol: Induction of cell death is the major aim of antitumor drugs. We analyzed cell death progression using the TUNEL technique (in the Apo-Direct kit), which is based on DNA fragmentation. MCF7 cells were treated with increasing concentrations of compounds 5 and 15 for 24 h or with 30 μM of compound 15 or 15 μM of compound 5 for different times. The negative control was treated with vehicle, and camptothecin (6 μM) was included as a positive control.
3 × 10^6 or 2 × 10^6 MCF7 cells were seeded in 25 cm^2 flasks for treatments up to 24 h or 48 h, respectively. DMSO (vehicle) or the dissolved compounds were added 24 h after seeding and cells were incubated for different times at 37 °C under 5% CO2. Cell cycle and cell death were analyzed simultaneously with the Apo-Direct kit (BD Pharmingen, Madrid, Spain), following the manufacturer’s protocol. Briefly, cells were fixed in 1% paraformaldehyde for 45 min at 0 °C, washed with PBS and incubated for at least 30 min in 70% ethanol on ice. Cells were then stained both with FITC-dUTP (1 h, 37 °C) and propidium iodide (30 min, room temperature) and analyzed by flow cytometry using a Coulter Epics XL cytometer (Beckman Coulter, Brea, CA, USA).
Figure 5 Cell death induction is dose and time-dependent for compound 15 in MCF7. MCF7 cells were treated with vehicle (control) or increasing doses of compound 5 or 15 for 24 h. For the time-course experiment, MCF7 cells were treated with vehicle (control), compound 5 (15 μM) or compound 15 (30 μM) for different times. Camptothecin (6 μM) was included as positive control. Cells were stained with the Apo-Direct kit (TUNEL assay) and analyzed by flow cytometry. (A) Dose-dependent cell death at 24 h; (B) Time-course analysis of cell death.

[2] = test system: HT-29 (colorectal adenocarcinoma); test: MTT viability assay, HT-29; assay type: cell-based; settings: HT-29, 72 h, MTT; for CC50: read-out: LC50 (the source's name)
In short: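 Cells (10,000/well; RPMI or, for BEAS-2B, DMEM with 10% FBS; 37 °C, 5% CO2) were treated 72 h with six concentrations from 0.1 to 100 μM, diluted from 0.01 M DMSO stock. MTT was added for 4 h, formazan dissolved in DMSO, absorbance read at 550 nm; GI50, TGI and LC50 derived.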

[3] = test system: glutathione-glutaredoxin (GSH-Grx) system; test: Glutaredoxin/glutathione assay (NADPH consumption); assay type: biochemical; settings: 1 mM GSH, 200 μM NADPH, yeast GR, 1 μM hGrx1 when required, 45 min
Protocol: The assay was performed as previously described, with minor modifications and adapted for a 96-well plate. A mixture of 0.1 M Tris pH 8, 2 mM EDTA pH = 8, 0.1 mg/mL BSA, 1 mM GSH, 200 μM NADPH, and 0.008 OD/mL yeast GR was prepared (all reagents were purchased from Sigma-Aldrich). Reactions were performed with 1 μM hGrx1 (IMCO Corporation, Stockholm, Sweden) when corresponding and different concentrations of the compounds. A 100 μL mixture was added, and the final volume was adjusted to 110 μL per well. Consumption of NADPH was monitored at A340 on a VersaMax microplate reader (Molecular Devices) for 45 min.
Figure 7 Compounds 5 and 15 are substrates for thioredoxin reductase but not for the glutathione-glutaredoxin system. (A) NADPH consumption indicating reduction of compounds 5, 15 or MSA as control by thioredoxin reductase. The reaction mixture contained 100 nM TrxR1, 227 μM NADPH and the corresponding amount of compound in TE buffer (20 mM Tris, 2 mM EDTA pH = 8); (B) NADPH consumption indicating reduction of MSA by glutathione in the presence or absence of glutaredoxin. The reaction mixture contained the corresponding amount of compound, 0.1 M Tris, 2 mM EDTA pH = 8, 0.1 mg/mL BSA, 1 mM GSH, 200 μM NADPH, 0.008 OD/mL yeast GR and 1 μM hGrx1 when required. Only results for MSA are shown, as compounds 5 and 15 were not reduced.

[4] = test system: 184B5 (non-malignant mammary epithelium); test: MTT viability assay, 184B5; assay type: cell-based; settings: 184B5 non-malignant, 72 h, MTT; for CC50: read-out: LC50 (the source's name)

Dimethyl 2,5-furandicarboselenoate [Compound 15]
dead cells ([1]; 4 h): 20% | dead cells ([1]; 48 h): 80% | cell death time dependence [1]: caused cell death in a time-dependent manner | GI50 [2]: 3 ± 0.5 µM | TGI [2]: 6.6 ± 0.4 µM | CC50 [2]: 35.8 ± 5 µM | reduction by GSH in the presence or absence of glutaredoxin (NADPH consumption) [3]: not reduced | GI50 [4]: 3.5 ± 1.1 µM | TGI [4]: 6.4 ± 0.5 µM | CC50 [4]: 9.2 ± 0.9 µM

Methyl 3-chlorothiophen-2-carboselenoate [Compound 5]
cell death time dependence [1]: highest values of cell death for compound 5 were observed after 4 h treatment | GI50 [2]: 3.6 ± 0.3 µM | TGI [2]: 6.3 ± 0.2 µM | CC50 [2]: 8.9 ± 0.2 µM | reduction by GSH in the presence or absence of glutaredoxin (NADPH consumption) [3]: not reduced | GI50 [4]: 3.5 ± 0.4 µM | TGI [4]: 5.9 ± 0.3 µM | CC50 [4]: 8.3 ± 0.2 µM
